In one assay the target is T1, CRF2R (Homo sapiens, UniProt Q13324).
T1 sequence (Q13324 1-411): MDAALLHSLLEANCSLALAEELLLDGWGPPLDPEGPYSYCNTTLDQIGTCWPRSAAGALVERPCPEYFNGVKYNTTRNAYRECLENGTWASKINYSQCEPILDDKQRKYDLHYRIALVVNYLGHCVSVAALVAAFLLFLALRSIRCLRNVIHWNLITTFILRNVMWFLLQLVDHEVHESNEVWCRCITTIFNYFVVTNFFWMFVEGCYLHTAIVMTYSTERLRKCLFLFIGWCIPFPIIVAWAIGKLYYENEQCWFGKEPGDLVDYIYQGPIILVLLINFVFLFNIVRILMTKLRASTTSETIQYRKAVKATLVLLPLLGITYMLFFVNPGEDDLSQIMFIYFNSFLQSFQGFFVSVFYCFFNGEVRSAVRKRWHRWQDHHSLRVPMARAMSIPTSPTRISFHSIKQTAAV
Nature of the assay: CRF2R agonist activity (EC50 and Emax), called comparative CRF binding. The format is cell-based. Conditions: CRF2R. The text has this:
(§1) The pharmacological activity and selectivity of the peptides of present invention can be determined using published test procedures. See, e.g, U.S. patent application Ser. No. 09/799,978. Because CRF2R and CRF1R are homologous proteins, it is expected that a certain proportion of agonists for CRF2R will also function as agonists of CRF1R. As discussed above, activation of CRF1R induces activation of the HPA axis since increased corticosteroid production leads to skeletal muscle atrophy. In most cases in which an increase in muscle mass or function is desired, it is not desirable to activate the HPA axis.
(§2) Because it is desirable to discriminate binding between CRF2R, as compared with CRF1R, the assays described above may be conducted using a cell, or membrane from a cell, which expresses only CRF2R or the assays can be conducted with a recombinant source of CRF2R. Cells expressing both forms of CRFR may be modified using homologous recombination to inactivate or otherwise disable the CRF1R gene. Alternatively, if the source of CRFR contains more than one CRFR type, the background signal produced by the receptor which is not of interest must be subtracted from the signal obtained in the assay. […] Known antagonists of CRFRs include, but are not limited to, antalarmin (CRF1R selective), antisauvagine-30 (CRF2R selective) and astressin (nonselective for CRF1R/CRF2R).
(§3) Cell-based assays include the steps of contacting cells which express CRF1R or CRF2R with a peptide of the present invention or control and measuring activation of the CRFR by measuring the expression or activity of components of the CRFR signal transduction pathways.
(§4) For example, after contact with a peptide of the present invention, lysates of the cells can be prepared and assayed for induction of cAMP. cAMP is induced in response to Gαs activation. Because Gαs is activated by receptors other than CRFR and because a test peptide may be exerting its effect through CRFRs or by another mechanism, two control comparisons are relevant for determining whether the peptide increases levels of cAMP via activation of a CRFR. One control compares the cAMP level of cells contacted with the peptide and the cAMP level of cells contacted with a control compound (i.e., the vehicle in which the peptide is dissolved).
(§5) In one example, cAMP induction is measured with the use of DNA constructs containing the cAMP responsive element linked to any of a variety of reporter genes can be introduced into cells expressing CRFRs. Such reporter genes include, but are not limited to, chloramphenicol acetyltransferase (CAT), luciferase, glucuronide synthetase, growth hormone, fluorescent proteins (e.g., Green Fluorescent Protein), or alkaline phosphatase. Following exposure of the cells to the peptide, the level of reporter gene expression can be quantitated to determine the peptide's ability to increase cAMP levels and thus determine the peptide's ability to activate the CRFR.
(§6) In addition to using cells expressing full length CRFRs, cells can be engineered which express CRFRs containing the ligand binding domain of the receptor coupled to, or physically modified to contain, reporter elements or to interact with signaling proteins. For example, a wild type CRFR or CRFR fragment can be fused to a G-protein resulting in activation of the fused G-protein upon agonist binding to the CRFR portion of the fusion protein. […] In addition, alternative pathways for induction of the CRE reporter could be eliminated to reduce basal levels.

The next assay concerns the target T2, CRF1R (Homo sapiens, UniProt P34998).
T2 sequence (P34998 24-415): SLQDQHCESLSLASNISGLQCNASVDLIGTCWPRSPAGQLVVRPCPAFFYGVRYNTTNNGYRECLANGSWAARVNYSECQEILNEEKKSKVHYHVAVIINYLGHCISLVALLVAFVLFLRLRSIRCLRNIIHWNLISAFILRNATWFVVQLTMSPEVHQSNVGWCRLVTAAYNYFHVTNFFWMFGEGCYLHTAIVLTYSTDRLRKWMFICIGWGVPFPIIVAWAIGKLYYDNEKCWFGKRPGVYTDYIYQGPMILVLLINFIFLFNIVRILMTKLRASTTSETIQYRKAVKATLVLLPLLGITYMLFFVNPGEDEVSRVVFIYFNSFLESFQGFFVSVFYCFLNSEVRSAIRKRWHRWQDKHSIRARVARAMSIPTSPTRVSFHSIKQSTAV
Nature of the assay: CRF1R agonist activity (EC50 and Emax), called comparative CRF binding. In kind it is cell-based. The following applies: CRF1R.
From the text: as §1, §2, §3, §4, §5, §6

The term EC50 denotes the midpoint of the concentration-response curve.

Read-outs that look alike come from different tables or passages of the source. Ends that are not written are not given here. Peptide text beside a SMILES is read from it. Where only a bound is given, the exact number is not on record here.

Consider `CC[C@H](C)[C@H](N)C(=O)N[C@H](C(=O)N[C@@H](CC(C)C)C(=O)N[C@@H](CO)C(=O)N[C@@H](CC(C)C)C(=O)N[C@@H](CC(=O)O)C(=O)N[C@H](C(=O)N1CCC[C@H]1C(=O)N[C@H](C(=O)NCC(=O)N[C@@H](CC(C)C)C(=O)N[C@@H](CC(C)C)C(=O)N[C@@H](CCC(N)=O)C(=O)N[C@H](C(=O)N[C@@H](CC(C)C)C(=O)N[C@@H](CC(C)C)C(=O)N[C@@H](CCC(=O)O)C(=O)N[C@@H](CCC(N)=O)C(=O)N[C@@H](C)C(=O)N[C@@H](C)C(=O)N[C@@H](C)C(=O)N[C@@H](C)C(=O)N[C@@H](CCCNC(=N)N)C(=O)N[C@@H](CCC(=O)O)C(=O)N[C@@H](CCC(N)=O)C(=O)N[C@@H](C)C(=O)N[C@H](C(=O)N[C@H](C(=O)N[C@@H](CC(N)=O)C(=O)N[C@@H](C)C(=O)N[C@@H](CCCNC(=N)N)C(=O)N[C@H](C(=O)N[C@@H](CC(C)C)C(=O)N[C@@H](C)C(=O)N[C@@H](CCCNC(=N)N)C(=O)N[C@H](C(N)=O)C(C)C)[C@@H](C)CC)[C@@H](C)O)[C@@H](C)O)[C@@H](C)CC)[C@@H](C)CC)C(C)C)C(C)C` [compound 134] (H-IVLSLDVPIGLLQILLEQAAAAREQATTNARILARV-NH2), for which the EC50 at CRF2R (CRF2R EC50 (nM)) and on CRF1R (CRF1R EC50 (nM)) was greater than 100 nM throughout.
`CC[C@H](C)[C@H](NC(=O)[C@H](CC(=O)O)NC(=O)[C@H](CC(C)C)NC(=O)[C@H](CC(C)C)NC(=O)[C@H](CCCCN)NC(=O)[C@H](CCCNC(=N)N)NC(=O)[C@H](CC(N)=O)NC(=O)[C@H](CO)NC(=O)[C@H](Cc1c[nH]cn1)NC(=O)[C@H](C)NC(=O)[C@H](CCC(N)=O)NC(=O)[C@H](CCC(N)=O)NC(=O)[C@H](C)NC(=O)[C@H](CC(C)C)NC(=O)[C@H](CCC(N)=O)NC(=O)[C@H](CC(=O)O)NC(=O)[C@H](C)NC(=O)[C@H](CCCCN)NC(=O)[C@@H](NC(=O)[C@H](CCSC)NC(=O)[C@H](CCC(=O)O)NC(=O)[C@H](CC(C)C)NC(=O)[C@@H](NC(=O)[C@H](CCC(=O)O)NC(=O)[C@H](CCCNC(=N)N)NC(=O)[C@H](CC(C)C)NC(=O)[C@H](CC(C)C)NC(=O)[C@H](Cc1c[nH]cn1)NC(=O)[C@H](Cc1ccccc1)NC(=O)[C@@H]1CCCN1C(=O)[C@H](CC(C)C)NC(=O)[C@H](CC(=O)O)NC(=O)[C@H](CC(C)C)NC(=O)[C@H](CO)NC(=O)[C@@H](NC(=O)[C@@H]1CCCN1C(=O)[C@@H]1CCCN1C(=O)[C@H](CCC(=O)O)NC(=O)[C@H](CCC(N)=O)NC(=O)[C@@H](N)CO)[C@@H](C)CC)C(C)C)[C@@H](C)O)C(=O)N[C@@H](C)C(N)=O` [compound 104]: the EC50 at CRF2R (read-out: CRF2R EC50) and on CRF1R (read-out: CRF1R EC50) was no less than 100 nM throughout.
“SQEPPISLDLPTELLREVLEMTKADQLAQQAHSNRKIIDIA-NH2 [compound 92]”: the EC50 at CRF2R (read-out: CRF2R EC50) and at CRF1R (read-out: CRF1R EC50) was no less than 100 nM each time.
As to “SQEIVLSLDVPIGLLREVLEMTKADQLAQQAHSNRKLLDIA-NH2 [compound 7]”, the “CRF2R (Emax %)” value at CRF2R (Emax) is “(19) %”. Also, at CRF1R (Emax), the “CRF1R (Emax %)” value is “(4) %”.
Take `CC[C@H](C)[C@H](N)C(=O)N[C@H](C(=O)N[C@@H](CC(C)C)C(=O)N[C@@H](CO)C(=O)N[C@@H](CC(C)C)C(=O)N[C@@H](CC(=O)O)C(=O)N[C@H](C(=O)N1CCC[C@H]1C(=O)N[C@H](C(=O)NCC(=O)N[C@@H](CC(C)C)C(=O)N[C@@H](CC(C)C)C(=O)N[C@@H](CCC(N)=O)C(=O)N[C@H](C(=O)N[C@@H](CC(C)C)C(=O)N[C@@H](CC(C)C)C(=O)N[C@@H](CCC(=O)O)C(=O)N[C@@H](CCC(N)=O)C(=O)N[C@H](C(=O)N[C@@H](CCCCN)C(=O)N[C@@H](C)C(=O)N[C@@H](CC(N)=O)C(=O)N[C@@H](C)C(=O)N[C@@H](C)C(=O)N[C@@H](CCCNC(=N)N)C(=O)N[C@@H](CCC(=O)O)C(=O)N[C@@H](CCC(N)=O)C(=O)N[C@@H](C)C(=O)N[C@H](C(=O)N[C@H](C(=O)N[C@H](C(=O)N[C@@H](C)C(=O)N[C@@H](CCCNC(=N)N)C(=O)N[C@H](C(=O)N[C@@H](CC(C)C)C(=O)N[C@@H](C)C(=O)N[C@@H](CCCNC(=N)N)C(=O)N[C@H](C(N)=O)C(C)C)[C@@H](C)CC)C(C)C)[C@@H](C)O)[C@@H](C)O)[C@@H](C)O)[C@@H](C)CC)[C@@H](C)CC)C(C)C)C(C)C` [compound 116] (H-IVLSLDVPIGLLQILLEQTKANAAREQATTVARILARV-NH2): the EC50 on CRF2R (read-out: CRF2R EC50) and at CRF1R (read-out: CRF1R EC50) was no less than 100 nM throughout.
For the compound “SQEPPISLDLPTHLLREVLEMTKADQLAQQAHSNRKLLDIA-NH2 [compound 99]”, the EC50 at CRF2R (read-out: CRF2R EC50) and at CRF1R (read-out: CRF1R EC50) was no less than 100 nM each time.
For the compound “NDDPPISIDLPQYLLRNMIEMARIENEREQAGLNAKYLAEV-NH2 [compound 265]”, the EC50 on CRF2R (read-out: CRF2R EC50) was no less than 100 nM; on CRF1R (read-out: CRF1R EC50) it was no less than 1000 nM.
On to `CC[C@H](C)[C@H](N)C(=O)N[C@H](C(=O)N[C@@H](CC(C)C)C(=O)N[C@@H](CO)C(=O)N[C@@H](CC(C)C)C(=O)N[C@@H](CC(=O)O)C(=O)N[C@H](C(=O)N1CCC[C@H]1C(=O)N[C@H](C(=O)NCC(=O)N[C@@H](CC(C)C)C(=O)N[C@@H](CC(C)C)C(=O)N[C@@H](CCC(N)=O)C(=O)N[C@@H](CCC(=O)O)C(=O)N[C@H](C(=O)N[C@@H](CC(C)C)C(=O)N[C@@H](CCC(=O)O)C(=O)N[C@@H](CCSC)C(=O)N[C@@H](C)C(=O)N[C@@H](CCCNC(=N)N)C(=O)N[C@@H](C)C(=O)N[C@@H](CCC(=O)O)C(=O)N[C@@H](CCC(N)=O)C(=O)N[C@@H](CC(C)C)C(=O)N[C@@H](C)C(=O)N[C@@H](CCC(N)=O)C(=O)N[C@@H](CCC(N)=O)C(=O)N[C@@H](C)C(=O)N[C@@H](Cc1c[nH]cn1)C(=O)N[C@@H](CO)C(=O)N[C@@H](CC(N)=O)C(=O)N[C@@H](CCCNC(=N)N)C(=O)N[C@@H](CCCCN)C(=O)N[C@@H](CC(C)C)C(=O)N[C@@H](CCSC)C(=O)N[C@@H](CCC(=O)O)C(=O)N[C@H](C(=O)N[C@H](C(N)=O)[C@@H](C)CC)[C@@H](C)CC)C(C)C)[C@@H](C)CC)C(C)C)C(C)C` [compound 165] (H-IVLSLDVPIGLLQEVLEMARAEQLAQQAHSNRKLMEII-NH2), for which the EC50 on CRF2R (read-out: CRF2R EC50) and at CRF1R (read-out: CRF1R EC50) was greater than 100 nM throughout.

The values are drawn from patent publication US7632933B2, “Corticotropin releasing factor 2 receptor agonists” (priority 2002, dated 2009).
